Assay results published in US8637493B2, “Methods for treating glioblastoma” (University of Massachusetts, priority 2009, dated 2014).

How the values were obtained:
Format in all cases: cell-based, human
[1] = test system: Hes1; assay: RT-PCR / qRT-PCR of Notch target Hes1 mRNA in neurosphere cultures after DAPT; conditions: for decrease of Hes1 mRNA level: 48 hours after treatment, RT-PCR; for Hes1 expression (qRT-PCR): 1 μM DAPT, 48 hours
Procedure: TMZ concentrations for each culture were selected based on previous experiments (Mihaliak et al., Cancer Letts. 296, 168-177 (2010)) DAPT and LY concentrations were chosen for each culture based on the decrease in Hes1 and Hey1 expression. RNA was isolated from the cultures 48 hours after DAPT treatment, and Hes1 and Hey1 cDNA expression levels were analyzed by PCR or qPCR.
RT-PCR and RT-qPCR were performed as follows. Neurosphere cultures were pelleted and tumor tissues from subcutaneous xenografts were broken into a powder using a BioPulverizer (Biospec Products, Inc., Bartlesville, Okla.). RNA was isolated from neurosphere cultures and frozen tumor samples using TRIzol Reagent (Invitrogen, Carlsbad, Calif.), following the manufacturer's protocol. RNA was treated with DNase I, Amplification Grade (Invitrogen, Carlsbad, Calif.). cDNA was made using the SuperScript II Reverse Transcription (RT) Kit with Oligo(dT)12-18 primers (Invitrogen, Carlsbad, Calif.), followed by a 20 minute incubation at 37° C. with RNaseH. PCR was carried out using Taq DNA Polymerase, following the manufacturer's protocol (Invitrogen, Carlsbad, Calif.). Real time qPCR was carried out using QuantiTect SYBR Green (QIAGEN, Valencia, Calif.). Hes1 and β-Actin primers were developed using Primer3 (Rozen and Skaletsky, Methods Mol Biol 2000; 132: 365-86). Hes1 forward primer: 5″ […] 3″ (SEQ ID NO:1) and reverse primer: 5″ […] 3″ (SEQ ID NO:2). β-Actin (RT-PCR) forward primer: 5″[…] 3″ (SEQ ID NO:3) and reverse primer: 5″ […] 3″ (SEQ ID NO:4). β-Actin (qRT-PCR) forward primer: 5″[…] 3″ (SEQ ID NO:5) and reverse primer: 5″ […] (SEQ ID NO:6). Primers for Hey1 (Osipo et al., Oncogene 2008; 27: 5019-32), Notch1 (Lefort et al., Genes Dev 2007; 21: 562-77), Notch2 (O'Neill et al., Am J Pathol 2007; 171: 1023-36), Notch3 (Buchler et al., Ann Surg 2005; 242: 791-800, discussion −1) and Notch4 (Buchler et al., Ann Surg 2005; 242: 791-800, discussion −1) were previously published, RT-PCR products were analyzed on 2% agarose gels. tantification of band intensity for DAPT treated lines was determined using ImageJ (Rasband W S. ImageJ, U.S. National Institutes of Health, Bethesda, Md., USA. 1997-2004). cDNA levels for qRT-PCR products were calculated using the PFAFFL method (Pfaffl, Nucleic Acids Res 2001; 29: e45).

[2] = test system: U87NS-pMIG; assay: Neurosphere recovery assay, empty vector U87NS-pMIG; conditions: empty vector control
Procedure: (§1) Neurosphere cultures were dissociated to single cell suspensions by pH dissociation followed by filtration through 40 μm screens. For the neurosphere assay, 3,000 cells/ml of defined medium were seeded in 6-well plates. Immediately after plating, cells were treated with DMSO (Research Organics, Cleveland, Ohio) carrier control, TMZ-only, DAPT-only, or TMZ+DAPT. Additional DAPT was added on days 2 and 4. Neurospheres consisting of 10 or more cells were counted under a light microscope on day 7 for the converted cell lines. Primary lines have a slightly longer doubling time and were counted on day 10. After counting the neurospheres from the initial treatment, 2 ml of fresh defined medium was added to each well. DAPT was also added once more to the DAPT-only and TMZ+DAPT samples, and the cells were incubated for an additional 7 or 10 days. Neurospheres from the recovery period were counted on day 14 or day 20. To analyze secondary neurosphere formation, cells were collected, pelleted and dissociated to a single cell suspension by the pH method. Cells from each well were re-seeded into 6-well plates with 2 ml of defined medium. The number of secondary neurospheres formed by converted cell lines and primary cultures were counted on day 21 or day 30, respectively. All recovery assays were repeated with a minimum of 6 replicate sets of time points. […]

[3] = test system: U87NS-NICD; assay: Neurosphere recovery assay, U87NS-NICD (constitutive Notch1 intracellular domain)
Procedure: as §1

[4] = test system: GS7-2-pMIG; assay: Neurosphere recovery assay, empty vector GS7-2-pMIG; conditions: empty vector control
Procedure: as §1

[5] = test system: GS7-2-NICD; assay: Neurosphere recovery assay, GS7-2-NICD; conditions: constitutive NICD
Procedure: as §1

Row | Compound | decrease of Hes1 mRNA level ([1]; U87NS, DAPT 1 μM) | Hes1 expression (qRT-PCR) ([1]; U87NS-NICD) | Hes1 expression (qRT-PCR) ([1]; U87NS-pMIG) | decrease of Hes1 mRNA level ([1]; U373NS, DAPT 5 μM) | recovery: increase in neurospheres [2] | recovery: increase in neurospheres [3] | recovery: increase in neurospheres [4] | recovery: increase in neurospheres [5]
1 | C[C@H](NC(=O)Cc1cc(F)cc(F)c1)C(=O)N[C@H](C(=O)OC(C)(C)C)c1ccccc1 [DAPT, N-[N-(3,5-difluorophenacetyl)-L-alanyl]-(S)-phenylglycine t-butyl ester] | 72% | minimal decrease | decreased | 76% | – | – | – | –
2 | Cn1nnc2c(C(N)=O)ncn2c1=O [TMZ, temozolomide] | – | – | – | – | 1.9 fold | 2.3 fold | 2.1 fold | 2.6 fold
